Entries after “also recorded” stand apart in the source; their conditions may differ.
Legend:
Papain = molecular target: T1, Papain (Carica papaya, UniProt P00784); assay: Protease inhibition profiling (Reaction Biology Corp): Papain; format: biochemical
T1 construct: Reaction Biology Corp (screening service)
T1 sequence (P00784 134-345): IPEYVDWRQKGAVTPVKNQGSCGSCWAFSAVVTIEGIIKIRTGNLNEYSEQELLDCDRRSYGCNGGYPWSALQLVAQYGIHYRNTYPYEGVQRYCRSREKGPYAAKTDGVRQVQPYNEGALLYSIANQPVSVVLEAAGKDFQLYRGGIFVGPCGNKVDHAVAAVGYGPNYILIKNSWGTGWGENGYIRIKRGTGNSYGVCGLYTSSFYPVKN

Cruzain = molecular target: T2, Cruzain (Trypanosoma cruzi, UniProt P25779); assay: biochemical; format: biochemical
T2 construct: made in house
T2 sequence (P25779 123-337 limits assumed): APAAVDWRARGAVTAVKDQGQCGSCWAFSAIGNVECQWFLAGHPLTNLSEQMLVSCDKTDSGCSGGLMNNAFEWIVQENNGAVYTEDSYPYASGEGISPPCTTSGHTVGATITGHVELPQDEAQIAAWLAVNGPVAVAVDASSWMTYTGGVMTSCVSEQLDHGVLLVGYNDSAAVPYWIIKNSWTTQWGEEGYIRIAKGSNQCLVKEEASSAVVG
Experimental: For pH dependence studies, cruzain was tested at 4 nM in 5 µM Z-Phe-Arg-AMC in 0.15 M citrate phosphate buffer at pH 5.5 and pH 8.0 with 5 mM DTT, and 0.01% Triton-X 100. Enzyme was added to wells of a 96-well microtiter plate containing substrate and inhibitor diluted in DMSO (0.5% final concentration), or DMSO control. Final inhibitor concentration ranged from 0.01 µM to 10 µM. Experiments were done in triplicate. Assays were run at 25°C in an automated microtiter plate spectrofluorometer, with robotic delivery of enzyme and readings every 1.52 seconds throughout the assay, before and after enzyme addition.
(§1) Inhibitor dilutions which produce simple exponential progress curves over a wide range of k obs, were used to determine kinetic parameters. The value of k obs, the rate constant for loss of enzyme activity, was determined from an equation for pseudo first order dynamics using Prism 4.0 (GraphPad). When k obs varied linearly with inhibitor concentration, k ass was determined by linear regression analysis. If the variation was hyperbolic, indicating saturation inhibition kinetics, k inact and K i were determined from an equation describing a two-step irreversible inhibitor mechanism [k obs = k inact [I]o/([I]o+Ki* (1+[S]o/K M))] and non-linear regression analysis Prism 4.0.[32] All values were corrected for substrate concentration.

Entamoeba histolytica = conditions: human colonic xenograft model; cited from earlier work
[1] = test system: T. cruzi CA-I/72 infected C3H mice; assay: Murine model of acute Chagas' disease; format: in vivo, mouse; set-up: key to Histopathology, Heart / Histopathology, Liver / Histopathology, Spleen / Histopathology, Colon: I/I: Inflammation and infiltration; +10A: Numerous nests of T. cruzi amastigotes; +A: 1-3 nests of T. cruzi amastigotes; Negative
Experimental: Three to four week old female C3H mice weighing ca. 20 g were used. The animals were separated into five lots of 5 mice per cage and infected with 10^6 tissue-culture derived trypomastigotes of the myotropic T. cruzi CA-I/72 cloned stock. The mice were treated with 100 mg compound/kg of body weight in 100 µL of solution (30–40% DMSO: 60–70% sterile distilled water) intraperitoneally twice a day. Treatment was initiated 12 h post infection and continued until cure, death of the animals, or for a total of 20 days. […] Parasitemias was determined at the end of the experiment when animals were euthanized. Tissues processed for histopathology include skeletal muscle, heart, liver, spleen, and colon. Blood (5–50 µL) was used for hemocultures. […] Compounds were considered toxic if life expectancy is lower than untreated controls (negative values). If necessary, PCR of blood and tissues was performed to confirm effectiveness of treatment and/or cure of treated animals. Results were expressed as survival (days) of treated animals.

tbcatB = molecular target: T3, tbcatB (Trypanosoma brucei, UniProt Q6R7Z5); assay: tbcatB enzyme assay; format: biochemical
T3 construct: made in house
T3 sequence (Q6R7Z5 23-340): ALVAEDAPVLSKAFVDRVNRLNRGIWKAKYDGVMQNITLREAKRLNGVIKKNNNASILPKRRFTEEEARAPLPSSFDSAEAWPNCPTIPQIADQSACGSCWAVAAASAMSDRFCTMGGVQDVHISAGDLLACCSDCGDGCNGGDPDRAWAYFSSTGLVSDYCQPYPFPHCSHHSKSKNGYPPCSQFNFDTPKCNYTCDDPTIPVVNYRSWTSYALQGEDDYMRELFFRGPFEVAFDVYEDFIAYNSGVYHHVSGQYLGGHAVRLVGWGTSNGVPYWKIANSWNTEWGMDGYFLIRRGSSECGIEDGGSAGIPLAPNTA
Experimental: Cruzain[27],[28], rhodesain [29], and tbcatB [30] were recombinantly expressed as described previously. TbcatB assays were performed as described previously.[31] Cruzain (2 nM) or rhodesain (3 nM) was incubated with 0.5 to 10 µM inhibitor concentration in 100 mM sodium acetate at pH 5.5, containing 5 mM DTT (buffer A) for 5 min at room temperature. Then buffer A containing Z-Phe-Arg-AMC (Bachem, K M = 1 µM) was added to enzyme inhibitor to give 20 µM substrate concentration in 200 µL, and the increase in fluorescence (excitation at 355 nm and emission at 460 nm) was followed with an automated microtiter plate spectrofluorometer (Molecular Devices, Flex station). Inhibitor stock solutions were prepared at 20 mM in DMSO, and serial dilutions were made in DMSO (0.7% DMSO in assay). Controls were performed using enzyme alone and enzyme with DMSO. IC50 values were determined graphically using inhibitor concentrations in the linear portion of a plot of inhibition versus log[I] (seven concentrations tested with at least two in the linear range).
as §1

Cathepsin V = molecular target: T4, Cathepsin V (Homo sapiens, UniProt O60911); assay: Protease inhibition profiling (Reaction Biology Corp): Cathepsin V; format: biochemical; conditions: read-out: IC50, Cathepsin V
T4 construct: Reaction Biology Corp (screening service)
T4 sequence (O60911 114-334, species assumed): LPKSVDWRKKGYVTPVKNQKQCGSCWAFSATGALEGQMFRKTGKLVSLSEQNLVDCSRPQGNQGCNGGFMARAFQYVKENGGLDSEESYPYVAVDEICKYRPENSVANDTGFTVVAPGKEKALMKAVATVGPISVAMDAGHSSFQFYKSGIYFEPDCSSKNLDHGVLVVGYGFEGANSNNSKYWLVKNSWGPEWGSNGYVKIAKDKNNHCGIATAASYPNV

Cathepsin S = molecular target: T5, Cathepsin S (Homo sapiens, UniProt P25774); assay: Protease inhibition profiling (Reaction Biology Corp): Cathepsin S; format: biochemical
T5 construct: Reaction Biology Corp (screening service)
T5 sequence (P25774 115-331, species assumed): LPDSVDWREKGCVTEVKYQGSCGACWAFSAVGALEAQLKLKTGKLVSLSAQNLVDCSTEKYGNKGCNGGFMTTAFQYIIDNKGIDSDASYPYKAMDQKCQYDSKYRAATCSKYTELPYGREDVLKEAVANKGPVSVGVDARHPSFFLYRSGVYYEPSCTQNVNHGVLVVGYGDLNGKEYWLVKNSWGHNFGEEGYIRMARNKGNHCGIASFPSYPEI

EhCP1 = conditions: cited from earlier work
[2] = pH 5.5, citrate phosphate buffer
[3] = pH 8.0, citrate phosphate buffer
[4] = individual infected mice, 100 mg/kg ip
[5] = individual infected mice, 100 mg/kg ip, 100 mg/kg

SMILES: CN1CCN(C(=O)N[C@@H](CCCNC(=N)N)C(=O)N[C@H](/C=C/S(=O)(=O)c2ccccc2)CCc2ccccc2)CC1 [WRR-483]
- IC50 (Papain): 373 ± 44 nM
- improvement of cruzain IC50 at pH 8.0 than at pH 5.5 (Cruzain; citrate phosphate buffer): ~10 fold
- increase in the second-order rate of inactivation of cruzain, pH 8.0 vs pH 5.5 (Cruzain; citrate phosphate buffer): 4 fold
- IC50 (Cruzain; [2]): 70 ± 30 nM
- k inact/K i, cruzain (Cruzain; [2]): 14,000±240 s^-1 M^-1
- IC50 (Cruzain; [3]): 8 ± 2 nM
- k inact/K i, cruzain (Cruzain; [3]): 62,000±350 s^-1 M^-1
- reduction of amebic invasion (Entamoeba histolytica): 95%
- T. cruzi infected mouse survival ([1]; 100 mg inhibitor/kg body weight in two daily doses, intraperitoneally, untreated control 21 days): 110 days
- survival of the acute infection ([1]; 10^6 trypomastigotes CA-I/72, untreated controls died within 21–60 days): survived the acute infection
- Histopathology, Colon [1, 4]: N
- Histopathology, Liver [1, 4]: N
- Histopathology, Spleen [1, 4]: N
- Histopathology, Heart [1, 5]: N and Mild i/i
- Histopathology, Sk. muscle [1, 5]: Moderate i/i; also recorded: +AIntense i/i
- inhibition of tbcatB (in words) (tbcatB): weak inhibitors
- inhibition at 1 µM (tbcatB; read-out: tbcatB % inhibition at 1 µM, 1 µM inhibitor): 26%
- IC50 (Cathepsin V): 335 ± 4 nM
- IC50 (Cathepsin S): 1.4 ± 0.01 nM
- inhibition of EhCP1 (EhCP1): potent inhibitor

Reference: article PMC2939063, “In Vitro and In Vivo Studies of the Trypanocidal Properties of WRR-483 against Trypanosoma cruzi” (PLoS Neglected Tropical Diseases, 2010)
